According to EP3319959B1, “HETERO-HALO INHIBITORS OF HISTONE DEACETYLASE” (Alkermes, Inc., priority 2015, dated 2017):

Each molecule was assayed on recombinant human HDACs (assay: HDAC enzymatic assay (LabChip capillary electrophoresis)). Conditions: 5 nM HDAC enzyme, 1 uM substrate, 5 hours pre-incubation, 17 hours reaction at 25°C; isoform not given.
Type: biochemical
Protocol: All recombinant human HDACs were purchased from BPS Bioscience. The substrate, FAM-TSRHK(AC)KL-CONH, was synthesized at NanoSyn. Final assay reactions contained 100 mM HEPES (pH 7.5), 50 mM KCl, 0.1% BSA, 0.01% Triton X-100, 1% DMSO, 1 uM substrate and 5 nM HDAC enzyme. Enzyme and compounds were pre-incubated at 25°C for 5 hours and reactions were initiated by addition of substrate. 10 uL reactions were incubated for 17 hours at 25°C and terminated by the addition of 40 uL of buffer containing 100 mM HEPES (pH 7.5), 0.1% BSA, 0.01% Triton X-100 and 0.05% SDS. Substrate and product peptides present in each sample were separated electrophoretically using the LabChip 3000 capillary electrophoresis instrument. Change in the relative fluorescence intensity of the substrate and product peaks reflects enzyme activity. Reaction progress was determined as the product to sum ratio (PSR): P/(S+P), where P is the peak height of the product peptide and S is the peak height of the substrate peptide. Reactions were performed in duplicate at 12 concentrations, (3X serial dilutions starting at 30 uM). IC50 values were calculated using a 4 Parameter Logistic Model.

| Compound | IC50 |
| --- | --- |
| CN1CCC(N2C[C@@H]3[C@H](C2)[C@H]3C(=O)Nc2nc(-c3ccc(F)cc3)ccc2N)CC1 (stereo in doubt) [Compound 263] | 0.5 to 5 µM |
| CN(C)Cc1cnc2c(c1)CN(C(=O)Nc1nc(-c3cccs3)ccc1N)C2 [Compound 145] | 0.1 to 0.5 µM |
| CN1CC=C(c2cc3c(cn2)CN(C(=O)Nc2nc(-c4ccc(F)cc4)ccc2N)C3)CC1 [Compound 148] | 0.1 to 0.5 µM |
| CN1CCC(c2cc3c(cn2)CN(C(=O)Nc2nc(-c4ccc(F)cc4)ccc2N)C3)CC1 [Compound 149] | 0.1 to 0.5 µM |
| CN(C)Cc1cnc2c(c1)CN(C(=O)Nc1nc(-c3ccc(F)cc3)ccc1N)C2 [Compound 154] | 0.1 to 0.5 µM |
| CN1CCN(c2cnc3c(c2)CN(C(=O)Nc2nc(-c4ccc(F)cc4)ccc2N)C3)CC1 [Compound 159] | 0.1 to 0.5 µM |
| CN(C)[C@H]1[C@@H]2CN(C(=O)Nc3nc(-c4ccc(F)cc4)ccc3N)C[C@@H]21 [Compound 242] | > 5 µM |
| CN1CC(Cn2ncc3c2CN(C(=O)Nc2nc(-c4ccc(F)cc4)ccc2N)C3)C1 [Compound 244] | 0.5 to 5 µM |
| CN1CC(n2ncc3c2CN(C(=O)Nc2nc(-c4ccc(F)cc4)ccc2N)C3)C1 [Compound 246] | > 5 µM |
| CN(C1COC1)C1CC2CN(C(=O)Nc3nc(-c4ccc(F)cc4)ccc3N)CC2C1 (centres unmarked) [Compound 248] | 0.5 to 5 µM |
| Nc1ccc(-c2ccc(F)cc2)nc1NC(=O)N1Cc2cccc(N3CCCC3)c2C1 [Compound 249] | > 5 µM |
| Nc1cnc(-c2ccc(F)cc2)cc1NC(=O)N1Cc2cnc(N3CCC3)cc2C1 [Compound 254] | 0.5 to 5 µM |
| Nc1ccc(-c2ccc(F)cc2)nc1NC(=O)N1Cc2cnc(C3CC3)cc2C1 [Compound 255] | 0.1 to 0.5 µM |
| CN1CC(CN2CC3CN(C(=O)Nc4nc(-c5ccc(F)cc5)ccc4N)CC3C2)C1 (centres unmarked) [Compound 256] | 0.5 to 5 µM |
| Nc1ccc(-c2ccc(F)cc2)nc1NC(=O)N1Cc2cccc(F)c2C1 [Compound 259] | 0.1 to 0.5 µM |
| COc1cc2c(cn1)CN(C(=O)Nc1nc(-c3ccc(F)cc3)ccc1N)C2 [Compound 260] | 0.1 to 0.5 µM |
| Nc1cn(-c2ccccc2)nc1NC(=O)N1Cc2ccc(CO)cc2C1 [Compound 350] | 0.5 to 5 µM |
| CN1CCN(c2ccc3c(c2)CN(C(=O)Nc2nn(-c4ccccc4)cc2N)C3)CC1 [Compound 352] | 0.5 to 5 µM |
| Nc1cn(-c2ccccc2)nc1NC(=O)N1CCN(C2COC2)CC1 [Compound 356] | > 5 µM |
| Nc1cn(-c2ccccc2)nc1NC(=O)C1CCNCC1 [Compound 357] | > 5 µM |
| CC(=O)N1CCC(C(=O)Nc2nn(-c3ccccc3)cc2N)CC1 [Compound 358] | > 5 µM |
| Nc1cn(-c2ccccc2)nc1NC(=O)C1CCN(C2COC2)CC1 [Compound 359] | > 5 µM |

| Compound | IC50 |
| --- | --- |
| CN1CC=C(c2ccc3c(c2)CN(C(=O)Nc2nc(-c4ccc(F)cc4)ccc2N)C3)CC1 [Compound 362] | 0.1 to 0.5 µM |
| COC1CCN(Cc2ccc3c(c2)CN(C(=O)Nc2nc(-c4ccc(F)cc4)ccc2N)C3)C1 (centres unmarked) [Compound 363] | 0.1 to 0.5 µM |
| CN1CCC(N2CCC(C(=O)Nc3nc(-c4ccc(F)cc4)ccc3N)CC2)CC1 [Compound 368] | 0.5 to 5 µM |
| Nc1ccc(-n2cccn2)nc1NC(=O)C1CCN(Cc2ccccc2F)CC1 [Compound 370] | > 5 µM |
| Nc1ccc(-c2ccco2)nc1NC(=O)N1Cc2ccncc2C1 [Compound 372] | 0.5 to 5 µM |
| CN1CCN(c2ccc3c(c2)CN(C(=O)Nc2nc(-c4ccc(F)cc4)ccc2N)C3)CC1 [Compound 374] | 0.1 to 0.5 µM |
| CN1CCC(COC(=O)Nc2nc(-c3cccnc3)ccc2N)CC1 [Compound 375] | > 5 µM |
| CN1CC(CC(=O)Nc2nc(-c3ccc(F)cc3)ccc2N)C1 [Compound 376] | > 5 µM |
| Nc1ccc(-c2cccnc2)nc1NC(=O)C1CCN(Cc2ccccc2F)CC1 [Compound 378] | > 5 µM |
| Nc1ccc(-c2ccccc2)nc1NC(=O)C1CCN(Cc2ccccc2F)CC1 [Compound 379] | > 5 µM |
| CC(=O)N1CCC(C(=O)Nc2nc(-c3ccccc3)ccc2N)CC1 [Compound 380] | > 5 µM |
| Nc1ccc(-c2ccccc2)nc1NC(=O)C1CCN(C2COC2)CC1 [Compound 381] | > 5 µM |
| Nc1cn(-c2ccccc2)nc1NC(=O)N1CC2COCC2C1 (centres unmarked) [Compound 382] | > 5 µM |
| Nc1ccc(-c2ccc(F)cc2)nc1NC(=O)N1CC2CCCC2C1 (centres unmarked) [Compound 385] | 0.5 to 5 µM |
| Nc1ccc(-c2ccc(F)cc2)nc1NC(=O)N1CCC(C(F)(F)F)C1 (centres unmarked) [Compound 390] | 0.5 to 5 µM |
| Nc1ccc(-c2ccc(F)cc2)nc1NC(=O)N1CC2COCC2C1 (centres unmarked) [Compound 392] | 0.5 to 5 µM |
| COCc1ccc2c(c1)CN(C(=O)Nc1nc(-c3cccnc3)ccc1N)C2 [Compound 393] | 0.5 to 5 µM |
| COCc1ccc2c(c1)CN(C(=O)Nc1nc(-c3ccc(F)cc3)ccc1N)C2 [Compound 396] | 0.1 to 0.5 µM |
| CN(C)Cc1ccc2c(c1)CN(C(=O)Nc1nc(-c3ccc(Cl)s3)ccc1N)C2 [Compound 401] | > 5 µM |
| Nc1ccc(-c2ccc(F)cc2)nc1NC(=O)C1CC2CCC(C1)O2 (centres unmarked) [Compound 406] | > 5 µM |
| Nc1ccc(-c2ccc(F)cc2)nc1NC(=O)N1Cc2ccc(CN3CCC(C(F)(F)F)C3)cc2C1 (centres unmarked) [Compound 408] | 0.1 to 0.5 µM |

The next lines start with the values.

| IC50 | Compound |
| --- | --- |
| 0.1 to 0.5 µM | Nc1ccc(-c2cccs2)nc1NC(=O)N1Cc2cc(CN3CCCC3)cnc2C1 [Compound 144] |
| 0.1 to 0.5 µM | CN(C)Cc1ccc(C2CN(C(=O)Nc3nc(-c4ccc(F)cc4)ccc3N)C2)cc1 [Compound 146] |
| 0.1 to 0.5 µM | Nc1ccc(-c2ccc(F)cc2)nc1NC(=O)N1Cc2cc(CN3CCCC3)cnc2C1 [Compound 155] |
| 0.1 to 0.5 µM | Nc1ccc(-c2cccs2)nc1NC(=O)N1Cc2nccnc2C1 [Compound 156] |
| 0.1 to 0.5 µM | CN1CC(Cn2cc3c(n2)CN(C(=O)Nc2nc(-c4ccc(F)cc4)ccc2N)C3)C1 [Compound 245] |
| 0.1 to 0.5 µM | CN1CC(n2cc3c(n2)CN(C(=O)Nc2nc(-c4ccc(F)cc4)ccc2N)C3)C1 [Compound 247] |
| > 5 µM | Cc1cc(F)ccc1-c1ccc(N)c(NC(=O)N2Cc3cnc(CN(C)C)cc3C2)n1 [Compound 261] |
| > 5 µM | CN(C1COC1)[C@H]1[C@@H]2CN(C(=O)Nc3nc(-c4ccc(F)cc4)ccc3N)C[C@@H]21 [Compound 262] |
| 0.1 to 0.5 µM | CN(C)Cc1ccc2c(c1)CN(C(=O)Nc1nn(-c3ccccc3)cc1N)C2 [Compound 351] |
| 0.5 to 5 µM | CN1CCN(Cc2ccc3c(c2)CN(C(=O)Nc2nn(-c4ccccc4)cc2N)C3)CC1 [Compound 353] |
| > 5 µM | CN1CCC(C(=O)Nc2nn(-c3ccccc3)cc2N)CC1 [Compound 354] |
| > 5 µM | CC(=O)N1CCN(C(=O)Nc2nn(-c3ccccc3)cc2N)CC1 [Compound 360] |
| > 5 µM | CN1CCN(C(=O)Nc2nn(-c3ccccc3)cc2N)CC1 [Compound 361] |
| 0.5 to 5 µM | Nc1ccc(-c2ccc(F)cc2)nc1NC(=O)N1CCC(F)(F)C1 [Compound 364] |
| 0.1 to 0.5 µM | CN(C)Cc1ccc2c(c1)CN(C(=O)Nc1nc(-c3ccco3)ccc1N)C2 [Compound 365] |
| 0.5 to 5 µM | Nc1ccc(-n2cccn2)nc1NC(=O)N1Cc2ccncc2C1 [Compound 369] |
| > 5 µM | Nc1ccc(-c2ccccc2)nc1NC(=O)C1CCN(Cc2cccnc2)CC1 [Compound 377] |
| 0.1 to 0.5 µM | CN1CCC(c2ccc3c(c2)CN(C(=O)Nc2nn(-c4ccccc4)cc2N)C3)CC1 [Compound 383] |
| > 5 µM | Nc1cn(-c2ccccc2)nc1NC(=O)N1CC2CCCC2C1 (centres unmarked) [Compound 384] |
| 0.1 to 0.5 µM | Nc1ccc(-c2ccc(F)cc2)nc1NC(=O)N1Cc2ccc(CN3CCC(F)(F)C3)cc2C1 [Compound 386] |
| 0.5 to 5 µM | CN1CCC(c2ccc3c(c2)CN(C(=O)Nc2nc(-c4ccc(F)cc4)ccc2N)C3)CC1 [Compound 387] |
| 0.5 to 5 µM | COC1CCN(C(=O)Nc2nc(-c3ccc(F)cc3)ccc2N)C1 (centres unmarked) [Compound 388] |
| > 5 µM | COCC1CCN(C(=O)Nc2nc(-c3ccc(F)cc3)ccc2N)C1 (centres unmarked) [Compound 389] |
| 0.1 to 0.5 µM | CC(O)c1ccc2c(c1)CN(C(=O)Nc1nc(-c3ccc(F)cc3)ccc1N)C2 (centres unmarked) [Compound 394] |
| > 5 µM | Nc1cn(-c2ccccc2)nc1NC(=O)N1CCC2(CCOCC2)C1 [Compound 407] |
| 0.1 to 0.5 µM | CN(C)Cc1ccc2c(c1)CN(C(=O)Nc1nc(-c3cccs3)ccc1N)C2 [Compound 409] |
| 0.1 to 0.5 µM | Nc1ccc(-c2cccs2)nc1NC(=O)N1Cc2ccc(CN3CCCC3)cc2C1 [Compound 410] |

These molecules were tested on SH-SY5Y cells (assay: Cell assay in SH-SY5Y cells with HDAC-Glo 2 reagent). Conditions: Homo sapiens, 5 h, five hours at 37°C, CI-994 at 100 uM defined as 100% inhibition.
Type: cell-based
Protocol: SH-SY5Y cells (Sigma) were cultured in Eagle's Modified Essential Medium supplemented with 10% fetal bovine serum and pen/strep. Twenty-four hours prior to compound dosing 20 uL of cells were plated in white 384 well plates at a density of 1,500 cells/well. Compounds were serially diluted in neat DMSO and then diluted 1:100 v/v into media without FBS and mixed. Media was removed from the plated cells and the diluted compounds in serum free media (1% v/v final DMSO) were added and incubated at 37°C for five hours. Ten uL of HDAC-Glo 2 reagent with 0.1% Triton X-100 was then added, the plate was mixed and allowed to develop at room temperature for 100 minutes. Plates were then read with a Spectramax LMax luminometer employing a 0.4s integration time. Dose response curves were constructed with normalized data where CI-994 at 100 uM was defined as 100% inhibition and DMSO alone as 0% inhibition. Table 5. IC50 and EC50 Values for Exemplary Compounds Useful in the Invention

| Compound | EC50 |
| --- | --- |
| CN1CCC(N2C[C@@H]3[C@H](C2)[C@H]3C(=O)Nc2nc(-c3ccc(F)cc3)ccc2N)CC1 (stereo in doubt) [Compound 263] | 0.5 to 5 µM |
| CN(C)Cc1cnc2c(c1)CN(C(=O)Nc1nc(-c3cccs3)ccc1N)C2 [Compound 145] | 0.1 to 0.5 µM |
| CN1CC=C(c2cc3c(cn2)CN(C(=O)Nc2nc(-c4ccc(F)cc4)ccc2N)C3)CC1 [Compound 148] | 0.5 to 5 µM |
| CN1CCC(c2cc3c(cn2)CN(C(=O)Nc2nc(-c4ccc(F)cc4)ccc2N)C3)CC1 [Compound 149] | 0.1 to 0.5 µM |
| CN(C)Cc1cnc2c(c1)CN(C(=O)Nc1nc(-c3ccc(F)cc3)ccc1N)C2 [Compound 154] | 0.1 to 0.5 µM |
| CN1CCN(c2cnc3c(c2)CN(C(=O)Nc2nc(-c4ccc(F)cc4)ccc2N)C3)CC1 [Compound 159] | 0.5 to 5 µM |

Continued, values first:

| EC50 | Compound |
| --- | --- |
| 0.1 to 0.5 µM | Nc1ccc(-c2cccs2)nc1NC(=O)N1Cc2cc(CN3CCCC3)cnc2C1 [Compound 144] |
| 0.5 to 5 µM | CN(C)Cc1ccc(C2CN(C(=O)Nc3nc(-c4ccc(F)cc4)ccc3N)C2)cc1 [Compound 146] |
| 0.1 to 0.5 µM | Nc1ccc(-c2ccc(F)cc2)nc1NC(=O)N1Cc2cc(CN3CCCC3)cnc2C1 [Compound 155] |
| 0.1 to 0.5 µM | Nc1ccc(-c2cccs2)nc1NC(=O)N1Cc2nccnc2C1 [Compound 156] |
